Data: ChEMBL document CHEMBL1201862, “PubChem BioAssay data set” (2004)
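Cultured in 96-well plates, cells were exposed to test compound for 48 hours across five concentrations. Abbreviation: GI50, concentration required for 50% inhibition of growth.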 Active and inactive are the calls of the source. Cut-off read from the data, not from the text of the source: active = GI50 up to about 1.1 µM and inactive = higher.

What was measured:
Test in all cases: inhibition of tumour cell growth, NCI panel, 48 h
MDA-MB-435 = test system: MDA-MB-435
COLO 205 = test system: COLO 205
CCRF-CEM = test system: CCRF-CEM
RXF 393 = test system: RXF 393
UACC-257 = test system: UACC-257
SF-539 = test system: SF-539
IGROV-1 = test system: IGROV-1
SN12C = test system: SN12C
M14 = test system: M14
SNB-19 = test system: SNB-19
SW-620 = test system: SW-620
HCT-116 = test system: HCT-116
T47D = test system: T47D
LOX IMVI = test system: LOX IMVI
NCI-H522 = test system: NCI-H522
HOP-92 = test system: HOP-92
TK-10 = test system: TK-10
786-0 = test system: 786-0
A498 = test system: A498
SK-MEL-2 = test system: SK-MEL-2

Measured: GI50

NCC(=O)C(O)C(O)C(O)CO (stereo not given)
inactive: MDA-MB-435 > 100 µM | COLO 205 > 100 µM | CCRF-CEM > 100 µM | RXF 393 > 100 µM | UACC-257 > 100 µM | SF-539 > 100 µM | IGROV-1 > 100 µM | SN12C > 100 µM | M14 > 100 µM | SNB-19 > 100 µM | SW-620 > 100 µM | HCT-116 > 100 µM | T47D > 100 µM | LOX IMVI > 100 µM | NCI-H522 > 100 µM | HOP-92 > 100 µM | TK-10 > 100 µM | 786-0 > 100 µM | A498 > 100 µM | SK-MEL-2 > 100 µM

[O-][n+]1onc2c3nn(-c4ccccc4)nc3ccc21
inactive: MDA-MB-435 > 100 µM | COLO 205 61.8 µM | CCRF-CEM 25.6 µM | RXF 393 > 65.9 µM | UACC-257 28.8 µM | SF-539 > 100 µM | IGROV-1 > 100 µM | SN12C > 100 µM | M14 > 100 µM | SNB-19 > 100 µM | SW-620 65.8 µM | HCT-116 > 100 µM | T47D 7.4 µM | LOX IMVI 13.2 µM | NCI-H522 > 96.2 µM | HOP-92 > 100 µM | TK-10 > 71.1 µM | 786-0 > 100 µM | A498 > 100 µM | SK-MEL-2 > 100 µM

C1CN(c2nnc(N3CCC3)nn2)C1
inactive: MDA-MB-435 18.4 µM | COLO 205 60.7 µM | CCRF-CEM > 100 µM | RXF 393 > 63.5 µM | UACC-257 22.9 µM | SF-539 44.8 µM | IGROV-1 > 100 µM | SN12C 29 µM | M14 36.1 µM | SNB-19 > 67.9 µM | SW-620 32.3 µM | HCT-116 84.5 µM | T47D > 100 µM | LOX IMVI 17.8 µM | NCI-H522 44.4 µM | HOP-92 > 100 µM | TK-10 > 100 µM | 786-0 34.8 µM | A498 > 100 µM | SK-MEL-2 44.1 µM

CCO[C@H]1C[C@@H](c2ccccc2)[C@]2(C)C[C@H](C(=O)OC)ON2O1
inactive: MDA-MB-435 > 100 µM | COLO 205 > 100 µM | CCRF-CEM > 100 µM | RXF 393 > 100 µM | UACC-257 > 100 µM | SF-539 > 100 µM | IGROV-1 > 100 µM | SN12C > 100 µM | M14 > 100 µM | SNB-19 > 100 µM | SW-620 > 100 µM | HCT-116 > 100 µM | T47D > 100 µM | LOX IMVI > 100 µM | NCI-H522 > 100 µM | HOP-92 > 100 µM | TK-10 > 100 µM | 786-0 > 100 µM | A498 > 100 µM | SK-MEL-2 > 100 µM

C=C1c2nc3ccccc3n2C=C(c2ccc(C)cc2)N1c1ccc(C)cc1
inactive: MDA-MB-435 11.6 µM | COLO 205 28.8 µM | CCRF-CEM 33 µM | RXF 393 25.9 µM | UACC-257 67.3 µM | SF-539 > 48.1 µM | IGROV-1 > 67.1 µM | SN12C > 100 µM | M14 56.1 µM | SNB-19 > 100 µM | SW-620 36.8 µM | HCT-116 43.7 µM | T47D > 100 µM | LOX IMVI 34.8 µM | NCI-H522 17.2 µM | HOP-92 68.5 µM | TK-10 > 100 µM | 786-0 78.3 µM | A498 > 100 µM | SK-MEL-2 47.5 µM

Nc1ccc(/N=N\c2ccc(-c3ccc(O)cc3)cc2)c2ccc(S(=O)(=O)O)cc12
inactive: MDA-MB-435 > 100 µM | COLO 205 > 100 µM | CCRF-CEM > 100 µM | RXF 393 > 100 µM | UACC-257 > 100 µM | SF-539 > 100 µM | IGROV-1 > 100 µM | SN12C > 100 µM | M14 > 100 µM | SNB-19 > 100 µM | SW-620 > 100 µM | HCT-116 > 100 µM | T47D > 100 µM | LOX IMVI > 100 µM | NCI-H522 > 100 µM | HOP-92 > 100 µM | TK-10 > 100 µM | 786-0 > 100 µM | A498 > 100 µM | SK-MEL-2 > 100 µM
